The source of these data is patent US7553841B2, “Amino cyclobutylamide modulators of chemokine receptor activity” (Merck & Co., Inc., priority 2003, dated 2009).

In this assay the test system is chemokine receptor. The assay is described as follows: activity of separated cis/trans isomers (test not described). Particulars: cis versus trans isomer of the same example, separated by chromatography; values not given.
With `CC(O)[C@]1(C(=O)NCc2cncc(C(F)(F)F)c2)C[C@@H](N2CC[C@@]3(C=Cc4ccccc43)[C@@H](C)C2)C1` (mixture of isomers) [Example 122 cis isomer], the “relative activity of the separated isomers” value is reported as “more active isomer”.
As for `C[C@H]1CN(C2CC(C(=O)NCc3cc(C(F)(F)F)cc(C(F)(F)F)c3)C2)CC[C@@]12C=Cc1ccccc12` (stereo partly drawn) [Example 1 cis isomer], the entry is “more active isomer”; as for `CN(C1CCOCC1)C1CC(C(=O)NCc2cc(C(F)(F)F)cc(C(F)(F)F)c2)(c2ccccc2)C1` (stereo not drawn) [Example 41 cis isomer], “more active isomer”.
As for `CN(C1CCOCC1)C1CC(C(=O)NCc2cc(F)cc(C(F)(F)F)c2)(c2ccccc2)C1` (stereo not drawn) [Example 42 trans isomer], the entry is “active isomer”; as for `C[C@H]1CN(C2CC(CNC(=O)c3cc(C(F)(F)F)cc(C(F)(F)F)c3)(c3ccccc3)C2)CC[C@@]12C=Cc1ccccc12` (stereo partly drawn) [Example 43 cis isomer], “active isomer”; as for `C[C@H]1CN(C2CC(C)(C(=O)NCc3cc(C(F)(F)F)cc(C(F)(F)F)c3)C2)CC[C@@]12C=Cc1ccccc12` (stereo partly drawn) [Example 54 cis isomer], “more active isomer”.
